Measurements taken from patent US9113629B2, “4-amino-6-(4-substituted-phenyl)-picolinates and 6-amino-2-(4-substituted-phenyl)-pyrimidine-4-carboxylates and their use as herbicides” (DOW AGROSCIENCES LLC, priority 2013, dated 2015).
Where two headings read alike, the source gives them in different places.

Test system: test plant species in Direct Seeded Rice
Test: Postemergence herbicidal activity in direct seeded rice (Table 13)
Type: in vivo
Settings: for GR50 BRAPP / GR80 BRAPP / GR50 CYPSS / GR80 CYPSS / GR50 ECHSS / GR80 ECHSS / GR50 LEFSS / GR80 LEFSS / GR20 ORYSS / GR50 SCPJU / GR80 SCPJU / GR50 SEBEX / GR80 SEBEX: probit analysis; for GR20 ORYSS: ORYSS: Oryza sativa (crop); for pest or weed control at 35 g/ha / pest or weed control at 70 g/ha: post-emergence, 504 h; for pest or weed control at 35 g/ha: 35 g ai/ha; for pest or weed control at 70 g/ha: 70 g ai/ha
From the text: Seeds or nutlets of the desired test plant species were planted in a soil matrix prepared by mixing a loam soil (43 percent silt, 19 percent clay, and 38 percent sand, with a pH of about 8.1 and an organic matter content of about 1.5 percent) and river sand in an 80 to 20 ratio. The soil matrix was contained in plastic pots with a surface area of 139.7 cm^2. When required to ensure good germination and healthy plants, a fungicide treatment and/or other chemical or physical treatment was applied. The plants were grown for 10-17 d in a greenhouse with an approximate 14-h photoperiod which was maintained at about 29° C. during the day and 26° C. during the night. Nutrients and water were added on a regular basis and supplemental lighting was provided with overhead metal halide 1000-Watt lamps as necessary. The plants were employed for testing when they reached the second or third true leaf stage. A weighed amount, determined by the highest rate to be tested, of each test compound was placed in 25 mL glass vials and dissolved in a volume of 97:3 v/v acetone-DMSO to obtain 12× stock solutions. […] The concentrated stock solutions were added to the spray solutions so that the final acetone and DMSO concentrations were 16.2% and 0.5%, respectively. Spray solutions were diluted to the appropriate final concentrations with the addition of 10 mL of an aqueous mixture of 1.5% (v/v) Agri-dex crop oil concentrate. […] Compound requirements are based upon a 12 mL application volume at a rate of 187 L/ha. Formulated compounds were applied to the plant material with an overhead Mandel track sprayer equipped with […] nozzles calibrated to deliver 187 L/ha over an application area of 0.503 square meters (m^2) at a spray height of 18 inches (43 cm) above average plant canopy height. Control plants were sprayed in the same manner with the solvent blank. The treated plants and control plants were placed in a greenhouse as described above and watered by sub-irrigation to prevent wash-off of the test compounds. After 20-22 days, the condition of the test plants, compared with that of the untreated plants, was determined visually and scored on a scale of 0 to 100 percent where 0 corresponds to no injury and 100 corresponds to complete kill. By applying the well-accepted probit analysis as described by J. Berkson in Journal of the American Statistical Society, 48, 565 (1953) and by D. Finney in “Probit Analysis” Cambridge University Press (1952), the above data can be used to calculate GR20, GR50, GR80 and GR90 values, which are defined as growth reduction factors that correspond to the effective dose of herbicide required to kill or control 20 percent, 50 percent, 80 percent or 90 percent, respectively, of a target plant.

[1] = BRAPP: broadleaf signalgrass, Brachiaria platyphylla
[2] = CYPSS: sedge (Cyperus difformis, esculentus, iria)
[3] = ECHSS: barnyardgrass (Echinochloa crus-galli), junglerice (Echinochloa colonum)
[4] = LEFSS: sprangletop (Leptochloa chinensis, Leptochloa dubia)
[5] = SCPJU: Japanese bulrush, Scirpus juncoides
[6] = SEBEX: hemp sesbania, Sesbania exaltata
[7] = BRAPP: broadleaf signalgrass, Brachiaria platyphylla, read-out: Visual Growth Reduction (%) 21 Days After Application BRAPP
[8] = CYPSS: sedge (Cyperus difformis, esculentus, iria), read-out: Visual Growth Reduction (%) 21 Days After Application CYPSS
[9] = ECHSS: barnyardgrass (Echinochloa crus-galli), junglerice (Echinochloa colonum), read-out: Visual Growth Reduction (%) 21 Days After Application ECHSS
[10] = LEFSS: sprangletop (Leptochloa chinensis, Leptochloa dubia), read-out: Visual Growth Reduction (%) 21 Days After Application LEFSS
[11] = ORYSS: Oryza sativa, read-out: Visual Growth Reduction (%) 21 Days After Application ORYSS
[12] = SCPJU: Japanese bulrush, Scirpus juncoides, read-out: Visual Growth Reduction (%) 21 Days After Application SCPJU
[13] = SEBEX: hemp sesbania, Sesbania exaltata, read-out: Visual Growth Reduction (%) 21 Days After Application SEBEX

COC(=O)c1nc(-c2ccc(Br)cc2F)cc(N)c1Cl [Compound 93]
GR50 BRAPP [1]: 1 g ai/ha | GR80 BRAPP [1]: 1 g ai/ha | GR50 CYPSS [2]: 1 g ai/ha | GR80 CYPSS [2]: 2 g ai/ha | GR50 ECHSS [3]: 1 g ai/ha | GR80 ECHSS [3]: 1 g ai/ha | GR50 LEFSS [4]: 6 g ai/ha | GR80 LEFSS [4]: 11 g ai/ha | GR20 ORYSS: 13 g ai/ha | GR50 SCPJU [5]: 1 g ai/ha | GR80 SCPJU [5]: 1 g ai/ha | GR50 SEBEX [6]: 1 g ai/ha | GR80 SEBEX [6]: 1 g ai/ha | pest or weed control at 35 g/ha [7]: 95 to 100% | pest or weed control at 70 g/ha [7]: 95 to 100% | pest or weed control at 35 g/ha [8]: 95 to 100% | pest or weed control at 70 g/ha [8]: 95 to 100% | pest or weed control at 35 g/ha [9]: 95 to 100% | pest or weed control at 70 g/ha [9]: 95 to 100% | pest or weed control at 35 g/ha [10]: 95 to 100% | pest or weed control at 70 g/ha [10]: 95 to 100% | pest or weed control at 35 g/ha [11]: 45 to 59% | pest or weed control at 70 g/ha [11]: 60 to 74% | pest or weed control at 35 g/ha [12]: 95 to 100% | pest or weed control at 70 g/ha [12]: 95 to 100% | pest or weed control at 35 g/ha [13]: 95 to 100% | pest or weed control at 70 g/ha [13]: 95 to 100%

Nc1c(Cl)c(C(=O)O)nc(-c2ccc(C(F)(F)F)c(F)c2)c1Cl [Compound 146]
GR50 BRAPP [1]: 8 g ai/ha | GR80 BRAPP [1]: 29 g ai/ha | GR50 CYPSS [2]: 1 g ai/ha | GR80 CYPSS [2]: 1 g ai/ha | GR50 ECHSS [3]: 17 g ai/ha | GR80 ECHSS [3]: 32 g ai/ha | GR50 LEFSS [4]: 44 g ai/ha | GR80 LEFSS [4]: 87 g ai/ha | GR20 ORYSS: 18 g ai/ha | GR50 SCPJU [5]: 1 g ai/ha | GR80 SCPJU [5]: 1 g ai/ha | GR50 SEBEX [6]: 3 g ai/ha | GR80 SEBEX [6]: 4 g ai/ha | pest or weed control at 35 g/ha [7]: 60 to 74% | pest or weed control at 70 g/ha [7]: 95 to 100% | pest or weed control at 35 g/ha [8]: 95 to 100% | pest or weed control at 70 g/ha [8]: 95 to 100% | pest or weed control at 35 g/ha [9]: 85 to 94% | pest or weed control at 70 g/ha [9]: 85 to 94% | pest or weed control at 35 g/ha [10]: 0 to 29% | pest or weed control at 70 g/ha [10]: 75 to 84% | pest or weed control at 35 g/ha [11]: 30 to 44% | pest or weed control at 70 g/ha [11]: 60 to 74% | pest or weed control at 35 g/ha [12]: 95 to 100% | pest or weed control at 70 g/ha [12]: 95 to 100% | pest or weed control at 35 g/ha [13]: 95 to 100% | pest or weed control at 70 g/ha [13]: 95 to 100%

Nc1cc(-c2ccc(Br)cc2F)nc(C(=O)O)c1Cl [Compound 74]
GR50 BRAPP [1]: 1 g ai/ha | GR80 BRAPP [1]: 5 g ai/ha | GR50 CYPSS [2]: 5 g ai/ha | GR80 CYPSS [2]: 10 g ai/ha | GR50 ECHSS [3]: 1 g ai/ha | GR80 ECHSS [3]: 1 g ai/ha | GR50 LEFSS [4]: 6 g ai/ha | GR80 LEFSS [4]: 13 g ai/ha | GR20 ORYSS: 4 g ai/ha | GR50 SCPJU [5]: 1 g ai/ha | GR80 SCPJU [5]: 1 g ai/ha | GR50 SEBEX [6]: 1 g ai/ha | GR80 SEBEX [6]: 1 g ai/ha | pest or weed control at 35 g/ha [7]: 95 to 100% | pest or weed control at 70 g/ha [7]: 95 to 100% | pest or weed control at 35 g/ha [8]: 95 to 100% | pest or weed control at 70 g/ha [8]: 95 to 100% | pest or weed control at 35 g/ha [9]: 95 to 100% | pest or weed control at 70 g/ha [9]: 95 to 100% | pest or weed control at 35 g/ha [10]: 95 to 100% | pest or weed control at 70 g/ha [10]: 95 to 100% | pest or weed control at 35 g/ha [11]: 60 to 74% | pest or weed control at 70 g/ha [11]: 60 to 74% | pest or weed control at 35 g/ha [12]: 95 to 100% | pest or weed control at 70 g/ha [12]: 95 to 100% | pest or weed control at 35 g/ha [13]: 95 to 100% | pest or weed control at 70 g/ha [13]: 95 to 100%

Nc1c(Cl)c(C(=O)O)nc(-c2ccc(Br)cc2)c1Cl [Compound 125]
GR50 BRAPP [1]: 46 g ai/ha | GR80 BRAPP [1]: >70 g ai/ha | GR50 CYPSS [2]: 4 g ai/ha | GR80 CYPSS [2]: 10 g ai/ha | GR50 ECHSS [3]: 40 g ai/ha | GR80 ECHSS [3]: >70 g ai/ha | GR50 LEFSS [4]: 43 g ai/ha | GR80 LEFSS [4]: >70 g ai/ha | GR20 ORYSS: 0 g ai/ha | GR50 SCPJU [5]: 1 g ai/ha | GR80 SCPJU [5]: 1 g ai/ha | GR50 SEBEX [6]: 1 g ai/ha | GR80 SEBEX [6]: 1 g ai/ha | pest or weed control at 35 g/ha [7]: 45 to 59% | pest or weed control at 70 g/ha [7]: 60 to 74% | pest or weed control at 35 g/ha [8]: 95 to 100% | pest or weed control at 70 g/ha [8]: 95 to 100% | pest or weed control at 35 g/ha [9]: 45 to 59% | pest or weed control at 70 g/ha [9]: 60 to 74% | pest or weed control at 35 g/ha [10]: 45 to 59% | pest or weed control at 70 g/ha [10]: 60 to 74% | pest or weed control at 35 g/ha [11]: 0 to 29% | pest or weed control at 70 g/ha [11]: 0 to 29% | pest or weed control at 35 g/ha [12]: 95 to 100% | pest or weed control at 70 g/ha [12]: 95 to 100% | pest or weed control at 35 g/ha [13]: 95 to 100% | pest or weed control at 70 g/ha [13]: 95 to 100%
